Results as given in patent publication US20260347348A1, “JAK1/JAK2/TYK2 Inhibitors For Topical Treatment of Dermatological Diseases” (Hangzhou Highlightll Pharmaceutical Co., Ltd, priority 2022, published 2026).
pIC50: −log10 of the molar value.

Key:
TYK2 = TYK2 (Homo sapiens, UniProt P29597); assay: TYK2 biochemical test (33P-ATP filter binding kinase assay); conditions: room temperature, 2 hours
Protocol: (§1) The tests were conducted by Reaction Biology Corp, Malvern, PA (Anastassiadis et al. Nat Biotechnol. 2011; 29(11):1039-45). The step is briefly described as follows.
(§2) Basic reaction buffer: 20 mM Hepes (pH 7.5), 10 mM MgCl2, 1 mM EGTA, 0.02% Brij35, 0.02 mg/ml BSA, 0.1 mM Na3VO4, 2 mM DTT and 1% DMSO. The required cofactor was added to each kinase reaction respectively.
(§3) • 1. Preparing the designated substrate in the newly prepared basic reaction buffer; • 2. Transferring the required cofactor to the above matrix solution; • 3. Transferring the designated kinase to the substrate solution and mixing well slightly; • 4. Transferring a compound of formulae I-III in DMSO to the kinase reaction mixture with Acoustic technique (Echo550; nanoliter range), culturing for 20 minutes at room temperature; • 5. Introducing ^33P-ATP (specific activity: 10 μCi/μl) to the reaction mixture to trigger a reaction; • 6. Culturing at room temperature and conducting a kinase reaction for 2 hours; • 7. Plotting the reaction on P81 ion exchange paper; • 8. Testing the kinase activity with a filter binding assay.

TYK2/JAK1/JAK2 = TYK2/JAK1/JAK2 biochemical tests, comparative summary; conditions: for fold less potent than its 2-((pyrazol-4-yl)amino) analog (example 18): compared with example 18; for fold less potent TYK2/JAK1/JAK2 inhibitor compared to analogs of Formula II (example 4) and Formula III (example 18): compared with examples 4 and 18
Protocol: as §1, §2, §3

JAK1 [1] = target: T1, JAK1 (Homo sapiens, UniProt P23458); assay: JAK1 biochemical test (33P-ATP filter binding kinase assay); conditions: room temperature, 2 hours
T1 sequence (P23458 whole entry): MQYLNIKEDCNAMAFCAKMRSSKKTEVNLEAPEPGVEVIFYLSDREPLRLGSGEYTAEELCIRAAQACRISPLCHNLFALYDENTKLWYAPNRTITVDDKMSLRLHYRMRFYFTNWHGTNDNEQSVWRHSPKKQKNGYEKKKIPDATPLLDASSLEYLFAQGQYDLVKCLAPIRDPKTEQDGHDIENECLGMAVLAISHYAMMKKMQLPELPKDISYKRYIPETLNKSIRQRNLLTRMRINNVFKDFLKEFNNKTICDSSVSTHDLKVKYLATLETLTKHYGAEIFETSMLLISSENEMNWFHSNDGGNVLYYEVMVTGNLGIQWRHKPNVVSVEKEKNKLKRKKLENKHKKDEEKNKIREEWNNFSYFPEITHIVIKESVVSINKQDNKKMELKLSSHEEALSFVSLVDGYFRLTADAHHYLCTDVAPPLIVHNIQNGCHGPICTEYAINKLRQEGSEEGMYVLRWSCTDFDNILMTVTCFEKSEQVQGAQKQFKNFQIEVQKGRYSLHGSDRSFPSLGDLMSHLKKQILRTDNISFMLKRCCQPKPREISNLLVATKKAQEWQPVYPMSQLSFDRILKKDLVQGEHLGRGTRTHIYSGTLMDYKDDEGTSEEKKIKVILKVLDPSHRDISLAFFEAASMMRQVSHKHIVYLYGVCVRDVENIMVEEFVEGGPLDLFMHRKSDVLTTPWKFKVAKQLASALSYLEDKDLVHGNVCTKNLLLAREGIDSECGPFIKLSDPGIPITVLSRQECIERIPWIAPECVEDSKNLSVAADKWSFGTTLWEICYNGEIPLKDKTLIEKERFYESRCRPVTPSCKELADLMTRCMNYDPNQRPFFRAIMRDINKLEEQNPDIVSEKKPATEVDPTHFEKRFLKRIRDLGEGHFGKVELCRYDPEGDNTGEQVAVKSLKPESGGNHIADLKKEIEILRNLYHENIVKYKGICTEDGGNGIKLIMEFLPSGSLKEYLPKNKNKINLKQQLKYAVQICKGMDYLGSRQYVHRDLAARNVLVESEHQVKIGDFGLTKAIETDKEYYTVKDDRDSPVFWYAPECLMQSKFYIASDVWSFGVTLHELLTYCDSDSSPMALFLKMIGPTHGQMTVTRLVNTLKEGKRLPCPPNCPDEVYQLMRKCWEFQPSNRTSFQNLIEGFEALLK
Protocol: as §1, §2, §3

JAK1 [2] = target: T1, JAK1; assay: JAK1 cellular ELISA assay using PBMC cells (IL-6 stimulated STAT3 phosphorylation); assay type: cell-based; conditions: IL-6 100 ng/ml, 25 min
Protocol: Purpose: test cellular JAK1 activity using the IL-6 stimulated STAT3 phosphorylation assay in PBMC cells.
• 1. Plate PBMC cells to 96-well plate at density of ~300,000 cell/well; • 2. Add different concentrations of test article to wells, maintain in incubator at 37° C. and 5% CO2 for 1 hour; • 3. Add IL-6 (final concentration: 100 ng/ml) to stimulate for 25 min in the above incubator; • 4. After stimulation, transfer the suspension to 1.5 mL tube, centrifuge at 200 g for 5 min, collect cells, add 100 μL 1× lysate, lyse on ice for 1 hour; • 5. Centrifuge at 4° C. and 12000 rpm for 10 min, take the supernatant and analyze according to instructions of the ELISA kit.

JAK2 = JAK2 (Homo sapiens, UniProt O60674); assay: JAK2 biochemical test (33P-ATP filter binding kinase assay); conditions: room temperature, 2 hours
Chain of JAK2 (O60674 whole entry): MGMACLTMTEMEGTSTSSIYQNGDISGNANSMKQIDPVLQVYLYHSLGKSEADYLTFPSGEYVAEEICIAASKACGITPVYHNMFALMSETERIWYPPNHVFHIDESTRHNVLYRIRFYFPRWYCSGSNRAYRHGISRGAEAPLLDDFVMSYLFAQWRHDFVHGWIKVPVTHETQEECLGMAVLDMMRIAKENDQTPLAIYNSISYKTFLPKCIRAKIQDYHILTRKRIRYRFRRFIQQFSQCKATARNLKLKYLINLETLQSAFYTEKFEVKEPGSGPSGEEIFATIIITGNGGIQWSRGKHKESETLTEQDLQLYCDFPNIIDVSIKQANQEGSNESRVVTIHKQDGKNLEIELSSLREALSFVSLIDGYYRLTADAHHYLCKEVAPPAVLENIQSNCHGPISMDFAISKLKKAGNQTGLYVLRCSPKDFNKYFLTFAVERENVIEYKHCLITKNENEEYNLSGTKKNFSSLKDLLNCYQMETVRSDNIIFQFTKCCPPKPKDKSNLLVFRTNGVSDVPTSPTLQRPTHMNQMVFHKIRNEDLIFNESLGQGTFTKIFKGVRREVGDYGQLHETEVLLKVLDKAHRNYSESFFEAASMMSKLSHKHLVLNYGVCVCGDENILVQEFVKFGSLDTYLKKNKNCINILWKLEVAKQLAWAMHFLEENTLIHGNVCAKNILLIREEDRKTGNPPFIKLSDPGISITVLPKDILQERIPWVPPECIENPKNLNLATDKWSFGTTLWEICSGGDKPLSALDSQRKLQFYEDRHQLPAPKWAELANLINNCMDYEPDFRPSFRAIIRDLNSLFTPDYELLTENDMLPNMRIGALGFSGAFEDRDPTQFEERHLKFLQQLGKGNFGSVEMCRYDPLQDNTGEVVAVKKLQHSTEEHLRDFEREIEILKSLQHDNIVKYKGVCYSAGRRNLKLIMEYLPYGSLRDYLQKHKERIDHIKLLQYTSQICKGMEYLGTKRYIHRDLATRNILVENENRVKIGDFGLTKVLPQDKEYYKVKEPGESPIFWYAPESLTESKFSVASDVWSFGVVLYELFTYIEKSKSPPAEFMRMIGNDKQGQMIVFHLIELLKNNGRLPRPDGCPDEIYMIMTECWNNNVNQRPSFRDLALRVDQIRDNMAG
Protocol: as §1, §2, §3

[3] = approved oral agents; topical formulation of ruxolitinib; cited from earlier work

Chain of TYK2 (P29597 whole entry): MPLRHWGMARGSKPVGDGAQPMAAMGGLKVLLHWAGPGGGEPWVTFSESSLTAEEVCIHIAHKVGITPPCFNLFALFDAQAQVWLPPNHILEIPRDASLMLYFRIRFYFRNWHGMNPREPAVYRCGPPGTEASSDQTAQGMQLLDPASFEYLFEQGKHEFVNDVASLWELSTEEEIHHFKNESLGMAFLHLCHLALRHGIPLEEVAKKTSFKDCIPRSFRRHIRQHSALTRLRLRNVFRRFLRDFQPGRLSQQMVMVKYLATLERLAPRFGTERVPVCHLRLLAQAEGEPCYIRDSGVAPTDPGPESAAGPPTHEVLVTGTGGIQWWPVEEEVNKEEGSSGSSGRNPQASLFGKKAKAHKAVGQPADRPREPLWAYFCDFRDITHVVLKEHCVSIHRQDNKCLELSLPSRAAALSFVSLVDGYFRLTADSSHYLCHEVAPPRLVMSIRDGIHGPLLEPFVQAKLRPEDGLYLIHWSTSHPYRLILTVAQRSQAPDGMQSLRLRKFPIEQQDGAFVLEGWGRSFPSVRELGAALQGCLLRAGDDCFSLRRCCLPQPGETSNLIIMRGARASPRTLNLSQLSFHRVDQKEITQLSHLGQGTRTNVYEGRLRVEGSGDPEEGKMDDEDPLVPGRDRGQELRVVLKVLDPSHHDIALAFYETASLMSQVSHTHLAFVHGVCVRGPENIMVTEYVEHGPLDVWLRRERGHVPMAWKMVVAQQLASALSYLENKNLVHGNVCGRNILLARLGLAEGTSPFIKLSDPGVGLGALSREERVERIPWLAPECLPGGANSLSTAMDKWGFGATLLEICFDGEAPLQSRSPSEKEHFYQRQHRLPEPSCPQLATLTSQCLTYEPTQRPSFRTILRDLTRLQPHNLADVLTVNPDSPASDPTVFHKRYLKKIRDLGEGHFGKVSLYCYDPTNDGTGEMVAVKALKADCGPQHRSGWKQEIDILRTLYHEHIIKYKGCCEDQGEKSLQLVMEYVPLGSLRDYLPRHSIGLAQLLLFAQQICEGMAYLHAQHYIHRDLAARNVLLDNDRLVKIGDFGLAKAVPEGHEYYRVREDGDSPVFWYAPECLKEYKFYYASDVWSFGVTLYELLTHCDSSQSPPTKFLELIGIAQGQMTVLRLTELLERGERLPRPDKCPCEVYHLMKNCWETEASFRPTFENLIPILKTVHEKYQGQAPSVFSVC

SMILES: Cc1cnc(Nc2ccc3ncn(C)c3c2)nc1-c1cnn([C@H](CC#N)C2CCCC2)c1 [Compound 23, (R)-3-cyclopentyl-3-(4-(5-methyl-2-((1-methyl-1H-benzo[d]imidazol-6-yl)amino)pyrimidin-4-yl)-1H-pyrazol-1-yl)propanenitrile]
- pIC50 (TYK2): > 9.00
- TYK2/JAK1/JAK2 inhibition (in words) (TYK2/JAK1/JAK2): potent TYK2/JAK1/JAK2 inhibitors
- pIC50 (JAK1 [1]): > 9.00
- pIC50 (JAK1 [2]): > 6.30
- pIC50 (JAK2): > 9.00

SMILES: CCS(=O)(=O)N1CC(CC#N)(n2cc(-c3nc(Nc4cn(C)nn4)ncc3C)cn2)C1 [Compound 19, 2-(1-(ethylsulfonyl)-3-(4-(5-methyl-2-((1-methyl-1H-1,2,3-triazol-4-yl)amino)pyrimidin-4-yl)-1H-pyrazol-1-yl)azetidin-3-yl)acetonitrile, reference compound]
- pIC50 (TYK2): < 8.00
- fold less potent than its 2-((pyrazol-4-yl)amino) analog (example 18) (TYK2/JAK1/JAK2): > 10 ×
- pIC50 (JAK1 [1]): < 8.00
- pIC50 (JAK2): < 8.00

SMILES: CNS(=O)(=O)C[C@H]1CC[C@H](N(C)c2nc(Nc3cnn(C)c3)ncc2C)CC1 [Compound 21, N-methyl-1-((1r,4r)-4-(methyl(5-methyl-2-((1-methyl-1H-pyrazol-4-yl)amino)pyrimidin-4-yl)amino)cyclohexyl)methanesulfonamide, reference compound]
- pIC50 (TYK2): < 7.00
- fold less potent TYK2/JAK1/JAK2 inhibitor compared to analogs of Formula II (example 4) and Formula III (example 18) (TYK2/JAK1/JAK2): > 100 ×
- pIC50 (JAK1 [1]): < 7.00
- pIC50 (JAK2): < 7.00

SMILES: CCS(=O)(=O)N1CC(CC#N)(n2cc(-c3nc(Nc4ccn(C)n4)ncc3C)cn2)C1.Cl [Compound 14, 2-(1-(ethylsulfonyl)-3-(4-(5-methyl-2-((1-methyl-1H-pyrazol-3-yl)amino)pyrimidin-4-yl)-1H-pyrazol-1-yl)azetidin-3-yl)acetonitrile hydrochloride, reference compound]
- pIC50 (TYK2): < 8.00
- fold less potent than its 2-((pyrazol-4-yl)amino) analog (example 18) (TYK2/JAK1/JAK2): > 10 ×
- pIC50 (JAK1 [1]): < 8.00

SMILES: CCS(=O)(=O)N1CC(CC#N)(n2cc(-c3nc(Nc4ccc5ncn(C)c5c4)ncc3C)cn2)C1 [Compound 26, 2-(1-(ethylsulfonyl)-3-(4-(5-methyl-2-((1-methyl-1H-benzo[d]imidazol-6-yl)amino)pyrimidin-4-yl)-1H-pyrazol-1-yl)azetidin-3-yl)acetonitrile]
- TYK2/JAK1/JAK2 inhibition (in words) (TYK2/JAK1/JAK2): potent TYK2/JAK1/JAK2 inhibitors
- pIC50 (JAK1 [1]): > 9.00

SMILES: CCS(=O)(=O)N1CC(CC#N)(n2cc(-c3nc(Nc4cnn(C)c4)ncc3C3CC3)cn2)C1 [Compound 2, 2-(3-(4-(5-cyclopropyl-2-((1-methyl-1H-pyrazol-4-yl)amino)pyrimidin-4-yl)-1H-pyrazol-1-yl)-1-(ethylsulfonyl)azetidin-3-yl) acetonitrile]
- pIC50 (TYK2): > 9.00
- TYK2/JAK1/JAK2 inhibition (in words) (TYK2/JAK1/JAK2): potent TYK2/JAK1/JAK2 inhibitors
- pIC50 (JAK1 [1]): > 8.00
- pIC50 (JAK2): > 9.00

SMILES: N#CC[C@H](C1CCCC1)n1cc(-c2nc(Nc3cnn(C4CCOCC4)c3)ncc2Cl)cn1 [Compound 11]
- pIC50 (TYK2): > 9.00
- TYK2/JAK1/JAK2 inhibition (in words) (TYK2/JAK1/JAK2): potent TYK2/JAK1/JAK2 inhibitors

SMILES: Cc1cnc(Nc2cnn(CC3COC3)c2)nc1-c1cnn([C@H](CC#N)C2CCCC2)c1 [Compound 9, (R)-3-cyclopentyl-3-(4-(5-methyl-2-((1-(oxetan-3-ylmethyl)-1H-pyrazol-4-yl)amino)pyrimidin-4-yl)-1H-pyrazol-1-yl) propanenitrile]
- pIC50 (TYK2): > 9.00
- TYK2/JAK1/JAK2 inhibition (in words) (TYK2/JAK1/JAK2): potent TYK2/JAK1/JAK2 inhibitors
- pIC50 (JAK1 [1]): > 9.00
- pIC50 (JAK2): > 9.00

SMILES: CC[C@@H]1CN(C(=O)NCC(F)(F)F)C[C@@H]1c1cnc2cnc3[nH]ccc3n12 [upadacitinib]
- black box warnings / risks [3]: black box warnings of risks such as serious infections, non-melanoma skin cancers, thrombosis, and thrombocytopenia

SMILES: Cc1cnc(Nc2cnn(CC3CCOCC3)c2)nc1-c1cnn([C@H](CC#N)C2CCCC2)c1 [Compound 6, (R)-3-cyclopentyl-3-(4-(5-methyl-2-((1-((tetrahydro-2H-pyran-4-yl)methyl)-1H-pyrazol-4-yl)amino)pyrimidin-4-yl)-1H-pyrazol-1-yl)propanenitrile]
- pIC50 (TYK2): > 9.00
- TYK2/JAK1/JAK2 inhibition (in words) (TYK2/JAK1/JAK2): potent TYK2/JAK1/JAK2 inhibitors
- pIC50 (JAK1 [1]): > 9.00
- pIC50 (JAK2): > 9.00

SMILES: Cc1cnc(Nc2cnoc2)nc1-c1cnn([C@H](CC#N)C2CCCC2)c1 [Compound 5, (R)-3-cyclopentyl-3-(4-(2-(isoxazol-4-ylamino)-5-methylpyrimidin-4-yl)-1H-pyrazol-1-yl) propanenitrile]
- pIC50 (TYK2): > 9.00
- TYK2/JAK1/JAK2 inhibition (in words) (TYK2/JAK1/JAK2): potent TYK2/JAK1/JAK2 inhibitors
- pIC50 (JAK1 [1]): > 9.00
- pIC50 (JAK2): > 9.00

SMILES: CCCS(=O)(=O)N[C@H]1C[C@@H](N(C)c2ncnc3[nH]ccc23)C1 [abrocitinib]
- black box warnings / risks [3]: black box warnings of risks such as serious infections, non-melanoma skin cancers, thrombosis, and thrombocytopenia

SMILES: Cc1cnc(Nc2cnn(CCO)c2)nc1-c1cnn([C@H](CC#N)C2CCCC2)c1 [Compound 24, (R)-3-cyclopentyl-3-(4-(2-((1-(2-hydroxyethyl)-1H-pyrazol-4-yl)amino)-5-methylpyrimidin-4-yl)-1H-pyrazol-1-yl)propanenitrile]
- pIC50 (TYK2): > 9.00
- TYK2/JAK1/JAK2 inhibition (in words) (TYK2/JAK1/JAK2): potent TYK2/JAK1/JAK2 inhibitors
- pIC50 (JAK1 [1]): > 9.00
- pIC50 (JAK1 [2]): > 6.30
- pIC50 (JAK2): > 9.00

SMILES: Cc1cnc(Nc2cnn(C)c2)nc1N(C)[C@H]1CN(C(=O)CC#N)CC[C@H]1C [Compound 22, 3-((3R,4R)-4-methyl-3-(methyl(5-methyl-2-((1-methyl-1H-pyrazol-4-yl)amino)pyrimidin-4-yl)amino)piperidin-1-yl)-3-oxopropanenitrile, reference compound]
- pIC50 (TYK2): < 7.00
- fold less potent TYK2/JAK1/JAK2 inhibitor compared to analogs of Formula II (example 4) and Formula III (example 18) (TYK2/JAK1/JAK2): > 100 ×
- pIC50 (JAK1 [1]): < 7.00

SMILES: Cc1cnc(Nc2cnn(C3CCOCC3)c2)nc1-c1cnn([C@H](CC#N)C2CCCC2)c1 [Compound 7, (R)-3-cyclopentyl-3-(4-(5-methyl-2-((1-(tetrahydro-2H-pyran-4-yl)-1H-pyrazol-4-yl)amino)pyrimidin-4-yl)-1H-pyrazol-1-yl)propanenitrile]
- pIC50 (TYK2): > 9.00
- TYK2/JAK1/JAK2 inhibition (in words) (TYK2/JAK1/JAK2): potent TYK2/JAK1/JAK2 inhibitors
- pIC50 (JAK1 [1]): > 9.00
- pIC50 (JAK2): > 9.00

SMILES: CCCS(=O)(=O)N[C@H]1C[C@@H](N(C)c2nc(Nc3cnn(C)c3)ncc2C)C1 [Compound 20, N-((1s,3s)-3-(methyl(5-methyl-2-((1-methyl-1H-pyrazol-4-yl)amino)pyrimidin-4-yl)amino)cyclobutyl)propane-1-sulfonamide, reference compound]
- pIC50 (TYK2): < 8.00
- fold less potent TYK2/JAK1/JAK2 inhibitor compared to analogs of Formula II (example 4) and Formula III (example 18) (TYK2/JAK1/JAK2): > 10 ×
- pIC50 (JAK1 [1]): < 8.00
- pIC50 (JAK2): < 8.00

SMILES: Cc1cnc(Nc2cnn(C3COC3)c2)nc1-c1cnn([C@H](CC#N)C2CCCC2)c1 [Compound 8, (R)-3-cyclopentyl-3-(4-(5-methyl-2-((1-(oxetan-3-yl)-1H-pyrazol-4-yl)amino)pyrimidin-4-yl)-1H-pyrazol-1-yl) propanenitrile]
- pIC50 (TYK2): > 9.00
- TYK2/JAK1/JAK2 inhibition (in words) (TYK2/JAK1/JAK2): potent TYK2/JAK1/JAK2 inhibitors
- pIC50 (JAK1 [1]): > 9.00
- pIC50 (JAK2): > 9.00
